The source of these data is patent publication CN110711192A, “色氨酸增强对革兰氏阴性菌杀菌作用的应用” (Shandong University, priority 2018, dated 2020).

Converted amounts (≈) assume the structure as drawn.

What is called MIC is the lowest concentration that inhibits growth of the organism.

Assay [1] has as its system MG1655. The experiment in a line: Uptake of Texas Red-labelled gentamicin (flow cytometry). Format: cell-based, Escherichia coli. The settings on record: log and stationary phase, 0, 1, 5, 10 mM tryptophan.
In assay [2] the test system is MG1655. The experiment in a line: Intracellular reactive oxygen species (H2DCFDA). Format: cell-based, Escherichia coli. The conditions noted are these: log and stationary phase; 60 mg/L gentamicin alone or with 5 mM tryptophan, 1 h.
In assay [3] the test system is MG1655. The assay is described as follows: Rate of generation of drug-tolerant bacteria (viable count). It counts as cell-based, Escherichia coli. The settings on record: cultures of 3 to 9 h; gentamicin 60 mg/L and kanamycin 40 mg/L 5 h, then various tryptophan concentrations 30 min; concentration-dependent; printed as up to (可达).
Assay [4] relates to Escherichia coli MG1655 [大肠杆菌MG1655]. The experiment in a line: Bactericidal effect of antibiotic with or without tryptophan (viable count). Format: cell-based.
Assay [5] relates to MG1655 drug-tolerant bacteria [耐药菌]. The assay is described as follows: Killing of drug-tolerant bacteria (viable count). It counts as cell-based, Escherichia coli. The conditions noted are these: after gentamicin 60 mg/L or kanamycin 40 mg/L 5 h; then antibiotic + 5 mM tryptophan 5 h; printed as can reach (可以达到).
Assay [6] concerns sensitive strain MG1655 [敏感菌株MG1655]. The assay is described as follows: Minimum inhibitory concentration, sensitive strain MG1655. Format: cell-based. The settings on record: Escherichia coli, serial dilution, 96-well plate, broth.
For assay [7], the system named is resistant strain EY1 [抗性菌EY1]. The assay is described as follows: Minimum inhibitory concentration, resistant strain EY1. It counts as cell-based. The settings on record: serial dilution, 96-well plate, broth.

With `N[C@@H](Cc1c[nH]c2ccccc12)C(=O)O` [色氨酸], in assay [1], the “bacterial uptake of antibiotic” value is on record as “能够提升细菌对于抗生素的吸收,并呈现剂量依赖性”. Besides, in assay [2], the “intracellular reactive oxygen species level” value is reported as “能够提高胞内活性氧的水平”. Moreover, the “reduction of generation of drug-tolerant bacteria” value in assay [3] is on record as 10-1000 fold. Moreover, the “increase of bactericidal effect versus group without tryptophan” value in assay [4] (5 mM tryptophan with gentamicin 3 mg/L and MIC 4 mg/L, 24 h, logarithmic phase) is listed as 100 fold. Besides, in assay [4] (5 mM tryptophan with kanamycin 1.5 mg/L to MIC 3.5 mg/L, 24 h, logarithmic phase), the “increase of bactericidal effect” value was 10-100 fold. The “increase of bactericidal efficiency” value in assay [4] (stationary phase MG1655, 5 mM tryptophan with gentamicin 60 mg/L or kanamycin 40 mg/L, 1 h per figure legend, 24 h per example) is approximately 10 fold. The “bactericidal efficiency against drug-tolerant bacteria” value in assay [5] is given as 80-90%.

As for `NC[C@H]1O[C@H](O[C@H]2[C@H](O)[C@@H](O[C@H]3O[C@H](CO)[C@@H](O)[C@H](N)[C@H]3O)[C@H](N)C[C@@H]2N)[C@H](O)[C@@H](O)[C@@H]1O` [卡那霉素], the MIC stood at 3.5 µg/mL (≈ 7.22 µM) in assay [6] and 220 µg/mL (≈ 454 µM) in assay [7].
